Test results as given in patent publication US20100152434A1, “Protein Kinase-binding Nucleosides and Associated Methods” (priority 2007, published 2010).
Like-named read-outs stand apart in the source and are kept apart here.

Assays:
SNB-75 [1] = test system: SNB-75
SF-539 = experiment: cells; details: Homo sapiens, SF-539
NCI/ADR-RES = NCI/ADR-RES (Ovarian Cancer panel)
T-47D = experiment: cells; details: Homo sapiens, T47D
HCC-2998 = details: HCC-2993
SK-MEL-5 = experiment: cells; details: Homo sapiens, SK-MEL-5
IGROV1 = experiment: cells; details: Homo sapiens, IGROV-1
DU-145 = experiment: cells; details: Homo sapiens, DU-145
788-0 = details: 786-0
SN12C = experiment: cells; details: Homo sapiens
HT29 = experiment: cells; details: Homo sapiens, HT-29
RXF 393 = details: RXF 393
MDA-MB-231/ATCC = experiment: cells; details: Homo sapiens, MDA-MB-231
TK-10 = experiment: cells; details: Homo sapiens, TK-10
SNB-75 [2] = experiment: cells; details: Homo sapiens, SNB-75
HCT-15 = experiment: cells; details: Homo sapiens, HCT-15
[3] = Log10 Concentration −4.0, Molar
[4] = Log10 Concentration −5.0, Molar
[5] = Log10 Concentration −6.0, Molar
[6] = Log10 Concentration −7.0, Molar
[7] = Log10 Concentration −8.0, Molar

In the case of CNC(=O)NC[C@H]1O[C@@H](n2cnc3c(NC(=O)Nc4ccccc4)ncnc32)C(O[Si](C)(C)C(C)(C)C)[C@H]1O[Si](C)(C)C(C)(C)C (stereo partly shown) [Compound 25, 2′,3′-Bis-O-(tert-butyldimethylsilyl)-5-deoxy-5′-[(N-methylcarbamoyl)amino]-N^6-(N-phenylcarbamoyl)adenosine], the TGI (SNB-75 [1]) is reported as 3.41E−5 Molar, the “Percent Growth” value (SNB-75 [1]; [3]) is reported as −12% and the “Percent Growth” value (SNB-75 [1]; [4]) is reported as 14%. The “Percent Growth” value (SNB-75 [1]; [5]) was 73%, the “Percent Growth” value (SNB-75 [1]; [6]) was 95% and the “Percent Growth” value (SNB-75 [1]; [7]) was 94%. It also gave a GI50 (SF-539) of 3.07 µM, an IC50 (SF-539) of 94.3 µM and a TGI (NCI/ADR-RES) of 2.07E−5 Molar. The “Percent Growth” value (NCI/ADR-RES; Log10 Concentration −4.0 Molar) was −21%, the “Percent Growth” value (NCI/ADR-RES; Log10 Concentration −5.0 Molar) was 10% and the “Percent Growth” value (NCI/ADR-RES; Log10 Concentration −6.0 Molar) was 103%. For the same compound, the “Percent Growth” value (NCI/ADR-RES; Log10 Concentration −7.0 Molar) was 109%, the “Percent Growth” value (NCI/ADR-RES; Log10 Concentration −8.0 Molar) was 105% and the GI50 (T-47D) was 2.87 µM. The IC50 (T-47D) was > 100 µM, the TGI (SNB-19) was >1.00E−4 Molar and the “Percent Growth” value (SNB-19; [3]) was 7%. For the same compound, the “Percent Growth” value (SNB-19; [4]) was 29%, the “Percent Growth” value (SNB-19; [5]) was 91% and the “Percent Growth” value (SNB-19; [6]) was 100%. For the same compound, the “Percent Growth” value (SNB-19; [7]) was 97%, the TGI (HCC-2998) was 3.75E−6 Molar and the “Percent Growth” value (HCC-2998; Log10 Concentration −4.0 Molar) was −91%. For the same compound, the “Percent Growth” value (HCC-2998; Log10 Concentration −5.0 Molar) was −79%, the “Percent Growth” value (HCC-2998; Log10 Concentration −6.0 Molar) was 106% and the “Percent Growth” value (HCC-2998; Log10 Concentration −7.0 Molar) was 93%. For the same compound, the “Percent Growth” value (HCC-2998; Log10 Concentration −8.0 Molar) was 100%, the TGI (OVCAR-4) was 4.39E−5 Molar and the “Percent Growth” value (OVCAR-4; [3]) was −4%. For the same compound, the “Percent Growth” value (OVCAR-4; [4]) was 7%, the “Percent Growth” value (OVCAR-4; [5]) was 100% and the “Percent Growth” value (OVCAR-4; [6]) was 106%. For the same compound, the “Percent Growth” value (OVCAR-4; [7]) was 106%, the TGI (MALME-3M) was 9.84E−6 Molar and the “Percent Growth” value (MALME-3M; [3]) was −48%. For the same compound, the “Percent Growth” value (MALME-3M; [4]) was −1%, the “Percent Growth” value (MALME-3M; [5]) was 96% and the “Percent Growth” value (MALME-3M; [6]) was 88%. The “Percent Growth” value (MALME-3M; [7]) was 105%, the GI50 (SK-MEL-5) was 1.98 µM and the IC50 (SK-MEL-5) was 13.6 µM. For the same compound, the GI50 (IGROV1) was 2.74 µM, the IC50 (IGROV1) was > 100 µM and the TGI (NCI-H226) was 3.63E−6 Molar. For the same compound, the “Percent Growth” value (NCI-H226; [3]) was −48%, the “Percent Growth” value (NCI-H226; [4]) was −7% and the “Percent Growth” value (NCI-H226; [5]) was 105%. The “Percent Growth” value (NCI-H226; [6]) was 106%, the “Percent Growth” value (NCI-H226; [7]) was 102% and the GI50 (DU-145) was 2.59 µM. The IC50 (DU-145) was 18.7 µM, the TGI (NCI-H522) was 7.14E−6 Molar and the “Percent Growth” value (NCI-H522; [3]) was −49%. The “Percent Growth” value (NCI-H522; [4]) was −15%, the “Percent Growth” value (NCI-H522; [5]) was 90% and the “Percent Growth” value (NCI-H522; [6]) was 90%. For the same compound, the “Percent Growth” value (NCI-H522; [7]) was 92%, the TGI (788-0) was 3.71E−6 Molar and the “Percent Growth” value (788-0; Log10 Concentration −4.0 Molar) was −80%. The “Percent Growth” value (788-0; Log10 Concentration −5.0 Molar) was −83%, the “Percent Growth” value (788-0; Log10 Concentration −6.0 Molar) was 110% and the “Percent Growth” value (788-0; Log10 Concentration −7.0 Molar) was 113%. The “Percent Growth” value (788-0; Log10 Concentration −8.0 Molar) was 103%, the TGI (ACHN) was >1.00E−4 Molar and the “Percent Growth” value (ACHN; [3]) was 2%. For the same compound, the “Percent Growth” value (ACHN; [4]) was 10%, the “Percent Growth” value (ACHN; [5]) was 105% and the “Percent Growth” value (ACHN; [6]) was 108%. The “Percent Growth” value (ACHN; [7]) was 107%, the GI50 (SN12C) was 1.81 µM and the IC50 (SN12C) was 6.29 µM. The GI50 (HT29) was 2.02 µM, the IC50 (HT29) was 8.91 µM and the TGI (RXF 393) was 4.01E−6 Molar. For the same compound, the “Percent Growth” value (RXF 393; [3]) was −77%, the “Percent Growth” value (RXF 393; [4]) was −73% and the “Percent Growth” value (RXF 393; [5]) was 111%. The “Percent Growth” value (RXF 393; [6]) was 73%, the “Percent Growth” value (RXF 393; [7]) was 96% and the GI50 (MDA-MB-231/ATCC) was 2.81 µM. The IC50 (MDA-MB-231/ATCC) was 28.3 µM, the TGI (COLO 205) was 3.35E−6 Molar and the “Percent Growth” value (COLO 205; [3]) was −94%. The “Percent Growth” value (COLO 205; [4]) was −95%, the “Percent Growth” value (COLO 205; [5]) was 105% and the “Percent Growth” value (COLO 205; [6]) was 111%. For the same compound, the “Percent Growth” value (COLO 205; [7]) was 109%, the GI50 (TK-10) was 4.29 µM and the IC50 (TK-10) was > 100 µM. For the same compound, the GI50 (SNB-75 [2]) was 2.43 µM, the IC50 (SNB-75 [2]) was > 100 µM and the TGI (OVCAR-8) was 4.01E−5 Molar. For the same compound, the “Percent Growth” value (OVCAR-8; [3]) was −9%, the “Percent Growth” value (OVCAR-8; [4]) was 13% and the “Percent Growth” value (OVCAR-8; [5]) was 106%. For the same compound, the “Percent Growth” value (OVCAR-8; [6]) was 106%, the “Percent Growth” value (OVCAR-8; [7]) was 108% and the GI50 (HCT-15) was 3.62 µM. For the same compound, the IC50 (HCT-15) was > 100 µM, the TGI (NCI-H322M) was >1.00E−4 Molar and the “Percent Growth” value (NCI-H322M; Log10 Concentration −4.0 Molar) was 21%. For the same compound, the “Percent Growth” value (NCI-H322M; Log10 Concentration −5.0 Molar) was 39%, the “Percent Growth” value (NCI-H322M; Log10 Concentration −6.0 Molar) was 105% and the “Percent Growth” value (NCI-H322M; Log10 Concentration −7.0 Molar) was 106%. For the same compound, the “Percent Growth” value (NCI-H322M; Log10 Concentration −8.0 Molar) was 102%.
